According to EP0414952A1, “Dithiolane derivatives” (NIHON NOHYAKU CO., LTD., priority 1989, dated 1991):

System: carbon tetrachloride-induced hepatic disorders
Assay: Effect of inhibiting carbon tetrachloride-induced hepatic disorders
Format: in vivo
Settings: male mice of dd strain, mean of 5 mice; for Hepatic Disorder index: 30 mg/kg orally in olive oil 6 hours before carbon tetrachloride 0.05 ml/kg orally, sacrificed 24 hours after, visual score 0 (healthy liver) to 6 (heavy disorder); for p-GPT(K.U.): plasma glutamic-pyruvic transaminase activity, Reitman-Frankel method, 30 mg/kg orally 6 hours before carbon tetrachloride 0.05 ml/kg orally, 24 hours after, values above 2,100 counted as 2,100
Method: Effect of inhibiting carbon tetrachloride-induced hepatic disorders A test compound was dissolved or suspended in olive oil and the resulting solution or suspension was orally administered to male mice (6 week age) of dd strain in a dose of 30 mg/kg. Six hours after the administration, carbon tetrachloride was orally administered to the mice in a dose of 0.05 ml/kg. The mice were sacrificed 24 hours after the administration of carbon tetrachloride. Degree of hepatic disorders was visually examined. On the other hand, blood was collected when they were sacrificed and plasma was obtained by centrifugation. Plasma glutamic-pyruvic transaminase (GPT) activity was determined according to the Reitman-Frankel method and the activity was expressed by Karmen Unit (K.U.). The hepatic disorder index is evaluated as below. [table] Five (5) mice were used in each group and the results are shown by a mean value. Further with respect to GPT activity, no further measurement was conducted with the case showing more than 2,100 units but for brevity, it was calculated as 2,100 units.

Row | Compound | Hepatic Disorder index | p-GPT(K.U.)
1 | CN(C)C1SC(=C2C(=O)CCCC2=O)SC1N(C)C (centres unmarked) [Compound No. 1, 2-((4,5-bis(dimethylamino)-1,3-dithiolan)-2-ylidene)-1,3-dioxocyclohexane] | 0.6 | 17 K.U.
2 | CN(C)C1SC(=C2C(=O)CC(C)(C)CC2=O)SC1O (centres unmarked) [Compound No. 13] | 0.4 | 157 K.U.
3 | CC(=O)OC1SC(=C2C(=O)CC(c3ccco3)CC2=O)SC1N1CCN(C)CC1 (centres unmarked) [Compound No. 46] | 0.2 | 205 K.U.
4 | CC(=O)OC1SC(=C2C(=O)CC(c3ccc(C)cc3)CC2=O)SC1N(C)C (centres unmarked) [Compound No. 30] | 0.5 | 229 K.U.
5 | O=C1CCCC(=O)C1=C1SC(N2CCOCC2)C(N2CCOCC2)S1 (centres unmarked) [Compound No. 2] | 0.5 | 12 K.U.
6 | CCOC(=O)OC1SC(=C2C(=O)CCCC2=O)SC1N(C)C (centres unmarked) [Compound No. 8] | 0 | 18 K.U.
7 | Cc1ccc(C2CC(=O)C(=C3SC(O)C(N(C)C)S3)C(=O)C2)o1 (centres unmarked) [Compound No. 47] | 1.6 | 430 K.U.
8 | CCC(=O)OC1SC(=C2C(=O)CCCC2=O)SC1N(C)C (centres unmarked) [Compound No. 7] | 0 | 15 K.U.
9 | CCN1CCN(C2SC(=C3C(=O)CC(C)(C)CC3=O)SC2OC(C)=O)CC1 (centres unmarked) [Compound No. 19] | 1.0 | 297 K.U.
10 | CN(C)C1SC(=C2C(=O)CC(C)(C)CC2=O)SC1N(C)C (centres unmarked) [Compound No. 3] | 1.6 | 49 K.U.
